From patent publication US5444042A, “Method of treatment of neurodegeneration with calpain inhibitors” (Cortex Pharmaceuticals, priority 1994, dated 1995)
Where a SMILES comes first, the peptide text is derived from it. The star is where a group is joined. Cbz = O=C(OCc1ccccc1)*; CH2Cl = ClC*

Columns and labels:
[1] = test system: N18-RE-105 cells; test: Glutamate-induced cell death, MTT conversion (Example 5); type: cell-based; conditions: 5 mM glutamate, inhibitor 3 μg/ml, 19 hours
Description: Stock cultures of N18-RE-105 cells were maintained in Dulbecco's modified Eagle's medium (DMEM) containing 10% fetal bovine serum (FBS) and supplemented with hypoxanthine, aminopterin and thymidine (HAT). Subconfluent cultures were split and plated into 96-well plates. Twenty-four hours after plating the cells were exposed to fresh media containing glutamate and various concentrations of Calpain inhibitors. Control cells were not treated with glutamate. Conversion of MTT was measured 19 hours later as described. Nineteen hours after the onset of exposure, cell viability was quantitated by measuring the extent to which the cells convert 3(4,5-dimethylthiazol-2-yl)-2-5-diphenyltetrazolium bromide (MTT) to a blue formazan product, which occurs in the mitochondria of living but not dead cells (Pauwels et al., 1988). A higher absorbance is indicative of greater cell viability.

[2] = test system: Calpain in crude brain extracts; test: Ca2+-stimulated spectrin proteolysis in crude brain extracts (Example 2); type: biochemical; conditions: 100 μM
Outline: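 Brain tissue was homogenized in 10 mM Tris pH 7.4, 0.32 M sucrose, 1 mM EGTA and 1 mM DTT, and nuclei and debris were removed. Calpain activity was scored as Ca^2+-stimulated proteolysis of endogenous spectrin.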

[3] = test system: Calpain II; test: Kapp/[I] progress curve method, Calpain II (Table 1C); type: biochemical; design: unit not given here; conditions: Rabbit Calpain II, Suc-leu-tyr-amidomethylcoumarin
Description: The Halo-Ketone Peptides, like the substituted isocoumarins, are irreversible inhibitors of Calpain. We determined the Kapp /[I] values for various members of this class of compounds against Calpains I and II. For comparison, we also determined these values against the additional thiol proteases Papain and Cathepsin B for at least one Halo-Ketone Peptide.
We assayed Calpain I and II using Suc-leu-tyr-amidomethylcoumarin. Papain was assayed using benzoyl-arg-4-nitroanilide, and Cathepsin B (bovine) was assayed using CBZ-lys-4-nitrophenyl ester. We followed the progress curve method of Tian and Tsou, Biochemistry, 21:1028-1032 (1982), the disclosure of which is hereby incorporated by reference, to derive kinetic data. Briefly, this method makes use of the equation: [formula] where [P.infin. ] represents the concentration of product formed at a time approaching infinity, A is the Kapp in the presence of substrate (S), K is the Michaelis constant and [Y] is the concentration of the inhibitor. Since [S] and [Y] are known and V and K can be determined, Kapp can be readily determined.

| SMILES | blue formazan product relative to control without glutamate [1] [%] | inhibition of spectrin proteolysis in crude brain extracts [2] | Kapp/[I] CII [3] |
| --- | --- | --- | --- |
| Cc1ccc(S(=O)(=O)N[C@@H](Cc2ccccc2)C(=O)CCl)cc1 [TPCK, Tosyl-PheCH2 Cl, reference compound] | ≥ 100 |  |  |
| CC(C)CC(NC(=O)CNC(=O)OCc1ccccc1)C(=O)NC(C)C(=O)CCl (stereo not drawn) [Z-Gly-Leu-Ala-CH2 Cl] (Cbz-Gly-Leu-Ala-CH2Cl; configuration not given here) |  | significant inhibition | 210000 |
